One may read the Emax as the greatest response seen or fitted, relative to the assay's reference. Usually ED50 stands for the dose at which the effect has come halfway, by size or by number of responders. One may read the melting point as the temperature of the solid-liquid transition.

Experimental findings from patent US10947242B2, “[1,2,4]triazolo[1,5and#8208;A]pyrimidine compounds as PDE2 inhibitors” (Janssen Pharmaceutica NV, priority 2016, dated 2021) are described below.

Each structure is given as a SMILES string. Values joined by “and” are separate entries in the source; they are usually repeats but may differ in a detail not shown here. Equal values may be shown once. Read-outs that look alike come from different tables or passages of the source.

The test system of data set [1] is hippocampal Shaffer collateral-CA1 synapses. Conditions: for Basal synaptic transmission, change versus vehicle-treated control during baseline pre-tetanus: urethane-anesthetized rats, SC-CA1 fEPSP slope; for Enduring (>2 h) synaptic potentiation after HFS (fEPSP slope, % of pre-tetanus baseline): vehicle level 119±4%; for fEPSP slope at 0-30 min after completion of the tetanization: vehicle level 139±1%.

In data set [2] the target is T1, Human recombinant PDE3A (hPDE3A) (Homo sapiens, UniProt Q14432).
T1 construct: purchased Scottish Biomedical; host or cells: Sf9 insect cells
The data set can be described thus: In vitro assay PDE3A (SPA, 3H-cAMP hydrolysis).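 As to all read-outs here: the method names PDE3A and the table heading PDE3B.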 The format is biochemical. The settings on record: for IC50: hPDE3B pIC50, read-out: pIC50 (converted); for Emax: read-out: hPDE3B Emax, read-out: Emax. In short, it runs like this:
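Human PDE3A, cloned from brain, as partially purified Sf9 lysate. Substrate 0.4 μM cAMP plus [3H]-cAMP (2.4 μCi/ml final) in 50 mM Tris pH 7.8, 8.3 mM MgCl2, 1.7 mM EGTA, 60 min at room temperature, 1% DMSO final. Hydrolysis read by SPA scintillation counting against no-enzyme blanks and DMSO controls.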

In data set [3] the target is T2, Human recombinant PDE10A (hPDE10A) (Homo sapiens, UniProt Q9Y233).
T2 construct: His tag (inferred from metal chelate purification); made in house; host or cells: Sf9 insect cells (baculovirus)
The data set can be described thus: In vitro assay PDE10A, human clone (SPA, 3H-cAMP hydrolysis). Conditions: human clone (h), default; for Emax: read-out: hPDE10A2 Emax; for IC50: read-out: hPDE10A2 pIC50 (converted). It is filed as biochemical. In short, it runs like this:
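Human recombinant PDE10A was expressed in Sf9 cells via baculovirus and incubated with compound in 50 mM Tris pH 7.8, 8.3 mM MgCl2, 1.7 mM EGTA. Substrate was 60 nM cAMP plus 0.008 μCi 3H-cAMP for 60 min at room temperature, read by SPA scintillation counting. Controls used 1% DMSO, and blanks omitted enzyme.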

The target of data set [4] is T3, Human recombinant PDE2A (hPDE2A) (Homo sapiens, UniProt O00408).
T3 construct: His tag (inferred from metal chelate purification); made in house; host or cells: Sf9 insect cells (baculovirus)
The data set can be described thus: In vitro assay PDE2A (SPA, 3H-cGMP hydrolysis). Conditions: for IC50: read-out: hPDE2A pIC50 (converted); for Emax: read-out: hPDE2A Emax. The format is biochemical.

The next data set deals with T4, PDE2A (Rattus norvegicus, UniProt Q01062).
T4 construct: Twenty μm-thick striatal sections were cut; from tissue; host or cells: rat brain, striatal sections
T4 sequence (Q01062 1-928): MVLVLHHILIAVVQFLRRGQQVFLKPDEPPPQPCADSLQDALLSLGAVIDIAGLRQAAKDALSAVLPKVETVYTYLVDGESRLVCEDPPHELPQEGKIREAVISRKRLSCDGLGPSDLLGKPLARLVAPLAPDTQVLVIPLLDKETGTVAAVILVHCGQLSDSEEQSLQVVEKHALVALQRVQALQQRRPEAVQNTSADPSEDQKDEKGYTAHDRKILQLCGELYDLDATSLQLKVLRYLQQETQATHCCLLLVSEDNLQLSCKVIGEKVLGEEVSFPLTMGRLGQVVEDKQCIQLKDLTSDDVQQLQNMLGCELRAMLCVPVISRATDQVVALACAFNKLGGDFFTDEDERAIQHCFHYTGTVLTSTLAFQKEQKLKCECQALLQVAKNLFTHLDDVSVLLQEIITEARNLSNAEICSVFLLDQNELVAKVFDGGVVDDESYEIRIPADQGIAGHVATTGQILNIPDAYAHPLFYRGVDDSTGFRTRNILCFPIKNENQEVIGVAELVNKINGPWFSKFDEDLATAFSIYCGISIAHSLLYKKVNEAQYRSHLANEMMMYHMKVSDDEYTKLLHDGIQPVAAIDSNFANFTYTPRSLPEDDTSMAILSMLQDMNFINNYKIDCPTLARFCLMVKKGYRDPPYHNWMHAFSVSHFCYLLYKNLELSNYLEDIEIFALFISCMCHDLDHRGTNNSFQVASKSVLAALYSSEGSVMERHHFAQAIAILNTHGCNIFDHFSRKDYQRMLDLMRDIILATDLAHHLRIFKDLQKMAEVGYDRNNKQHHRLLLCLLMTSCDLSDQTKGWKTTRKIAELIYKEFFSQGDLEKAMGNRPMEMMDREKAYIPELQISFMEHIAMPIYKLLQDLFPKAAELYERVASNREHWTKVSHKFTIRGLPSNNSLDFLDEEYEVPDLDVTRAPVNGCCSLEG
The data set can be described thus: PDE2 occupancy by test compounds, ex-vivo autoradiography with [3H]B-17a. The format is in vivo, Male Wistar rats. The settings on record: route PO (oral).

For data set [5], the target named is T5, Rat recombinant PDE10A (rPDE10A2) (Rattus norvegicus, UniProt Q9QYJ6).
T5 construct: His tag (inferred from metal chelate purification); made in house; host or cells: Sf9 insect cells (baculovirus)
T5 sequence (Q9QYJ6 1-794): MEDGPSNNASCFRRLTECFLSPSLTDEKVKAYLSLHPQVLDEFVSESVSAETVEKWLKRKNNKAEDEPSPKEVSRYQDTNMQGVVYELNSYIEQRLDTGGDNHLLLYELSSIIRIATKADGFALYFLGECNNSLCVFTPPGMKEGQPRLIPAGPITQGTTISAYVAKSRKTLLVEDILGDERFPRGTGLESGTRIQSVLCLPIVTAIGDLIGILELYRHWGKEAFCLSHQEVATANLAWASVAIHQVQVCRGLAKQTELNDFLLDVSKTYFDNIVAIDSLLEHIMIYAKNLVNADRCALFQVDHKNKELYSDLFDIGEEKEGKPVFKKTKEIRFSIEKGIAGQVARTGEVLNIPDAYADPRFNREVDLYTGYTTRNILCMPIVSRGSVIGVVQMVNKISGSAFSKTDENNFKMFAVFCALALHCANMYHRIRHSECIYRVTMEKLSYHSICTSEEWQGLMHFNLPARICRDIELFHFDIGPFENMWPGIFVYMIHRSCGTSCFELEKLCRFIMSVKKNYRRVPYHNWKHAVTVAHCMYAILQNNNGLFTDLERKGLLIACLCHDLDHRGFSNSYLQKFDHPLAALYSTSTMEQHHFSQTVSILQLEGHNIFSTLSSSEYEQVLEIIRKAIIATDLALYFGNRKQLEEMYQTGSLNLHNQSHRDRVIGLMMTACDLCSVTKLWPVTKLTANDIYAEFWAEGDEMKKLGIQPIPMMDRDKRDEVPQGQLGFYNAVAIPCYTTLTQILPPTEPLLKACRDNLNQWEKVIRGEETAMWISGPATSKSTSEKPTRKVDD
The data set is described as follows: In vitro assay PDE10A, rat clone (SPA, 3H-cAMP hydrolysis). The format is biochemical. The procedure: Rat recombinant PDE10A (rPDE10A2) was expressed in Sf9 cells using a recombinant rPDE10A baculovirus construct. Cells were harvested after 48 h of infection and the rPDE10A protein was purified by metal chelate chromatography on Ni-sepharose 6FF. Tested compounds were dissolved and diluted in 100% DMSO to a concentration 100 fold of the final concentration in the assay. Human recombinant PDE10A ([…]) was expressed in Sf9 cells using a recombinant hPDE10A baculovirus that was made and amplified in house. Cells were harvested after 72 h of infection and the hPDE10A protein was purified by metal chelate chromatography on Ni-sepharose. Compound dilutions (0.4 μl) were added in 384 well plates to 20 μl of incubation buffer (50 mM Tris pH 7.8, 8.3 mM MgCl2, 1.7 mM EGTA). 10 μl of rPDE10A or hPDE10A enzyme in incubation buffer was added and the reaction was started by addition of 10 μl substrate to a final concentration of 60 nM cAMP and 0.008 μCi ^3H-cAMP. The reaction was incubated for 60 minutes at room temperature. After incubation, the reaction was stopped with 20 μl of stop solution consisting of 17.8 mg/ml PDE SPA (scintillation proximity assay) beads. After sedimentation of the beads during 30 minutes the radioactivity was measured in a Perkin Elmer Topcount scintillation counter and results were expressed as cpm. For blanc values the enzyme was omitted from the reaction and replaced by incubation buffer. Control values were obtained by addition of a final concentration of 1% DMSO instead of compound. A best fit curve is fitted by a minimum sum of squares method to the plot of % of control value subtracted with blanc value versus compound concentration and the half maximal inhibitory concentration (IC50) value is derived from this curve.

Setting [6] is: human recombinant PDE2A, 10 μM cGMP substrate.

T3 sequence (O00408 whole entry): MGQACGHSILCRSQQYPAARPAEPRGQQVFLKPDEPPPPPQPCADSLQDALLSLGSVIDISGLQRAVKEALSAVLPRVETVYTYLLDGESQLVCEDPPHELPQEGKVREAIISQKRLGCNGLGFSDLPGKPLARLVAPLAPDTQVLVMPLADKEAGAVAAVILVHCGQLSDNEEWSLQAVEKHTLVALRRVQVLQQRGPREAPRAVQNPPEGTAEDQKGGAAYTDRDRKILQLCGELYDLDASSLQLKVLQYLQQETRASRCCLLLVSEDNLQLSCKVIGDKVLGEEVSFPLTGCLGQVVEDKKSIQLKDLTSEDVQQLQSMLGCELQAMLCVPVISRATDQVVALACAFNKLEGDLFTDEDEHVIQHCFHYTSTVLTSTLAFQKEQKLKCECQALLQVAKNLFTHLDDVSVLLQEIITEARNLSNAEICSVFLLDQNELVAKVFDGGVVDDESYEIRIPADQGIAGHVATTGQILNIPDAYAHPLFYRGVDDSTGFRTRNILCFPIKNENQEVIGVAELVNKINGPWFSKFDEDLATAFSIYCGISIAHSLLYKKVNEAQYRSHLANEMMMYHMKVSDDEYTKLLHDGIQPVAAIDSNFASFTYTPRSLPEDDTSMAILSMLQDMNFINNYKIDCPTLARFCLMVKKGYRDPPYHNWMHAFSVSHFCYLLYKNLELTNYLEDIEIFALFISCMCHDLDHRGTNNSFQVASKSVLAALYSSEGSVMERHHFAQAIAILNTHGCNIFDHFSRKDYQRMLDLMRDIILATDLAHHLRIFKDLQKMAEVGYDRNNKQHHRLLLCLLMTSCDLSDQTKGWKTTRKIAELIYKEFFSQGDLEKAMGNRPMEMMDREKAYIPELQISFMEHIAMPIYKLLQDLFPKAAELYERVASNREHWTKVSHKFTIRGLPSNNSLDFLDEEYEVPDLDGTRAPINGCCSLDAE
T1 sequence (Q14432 whole entry): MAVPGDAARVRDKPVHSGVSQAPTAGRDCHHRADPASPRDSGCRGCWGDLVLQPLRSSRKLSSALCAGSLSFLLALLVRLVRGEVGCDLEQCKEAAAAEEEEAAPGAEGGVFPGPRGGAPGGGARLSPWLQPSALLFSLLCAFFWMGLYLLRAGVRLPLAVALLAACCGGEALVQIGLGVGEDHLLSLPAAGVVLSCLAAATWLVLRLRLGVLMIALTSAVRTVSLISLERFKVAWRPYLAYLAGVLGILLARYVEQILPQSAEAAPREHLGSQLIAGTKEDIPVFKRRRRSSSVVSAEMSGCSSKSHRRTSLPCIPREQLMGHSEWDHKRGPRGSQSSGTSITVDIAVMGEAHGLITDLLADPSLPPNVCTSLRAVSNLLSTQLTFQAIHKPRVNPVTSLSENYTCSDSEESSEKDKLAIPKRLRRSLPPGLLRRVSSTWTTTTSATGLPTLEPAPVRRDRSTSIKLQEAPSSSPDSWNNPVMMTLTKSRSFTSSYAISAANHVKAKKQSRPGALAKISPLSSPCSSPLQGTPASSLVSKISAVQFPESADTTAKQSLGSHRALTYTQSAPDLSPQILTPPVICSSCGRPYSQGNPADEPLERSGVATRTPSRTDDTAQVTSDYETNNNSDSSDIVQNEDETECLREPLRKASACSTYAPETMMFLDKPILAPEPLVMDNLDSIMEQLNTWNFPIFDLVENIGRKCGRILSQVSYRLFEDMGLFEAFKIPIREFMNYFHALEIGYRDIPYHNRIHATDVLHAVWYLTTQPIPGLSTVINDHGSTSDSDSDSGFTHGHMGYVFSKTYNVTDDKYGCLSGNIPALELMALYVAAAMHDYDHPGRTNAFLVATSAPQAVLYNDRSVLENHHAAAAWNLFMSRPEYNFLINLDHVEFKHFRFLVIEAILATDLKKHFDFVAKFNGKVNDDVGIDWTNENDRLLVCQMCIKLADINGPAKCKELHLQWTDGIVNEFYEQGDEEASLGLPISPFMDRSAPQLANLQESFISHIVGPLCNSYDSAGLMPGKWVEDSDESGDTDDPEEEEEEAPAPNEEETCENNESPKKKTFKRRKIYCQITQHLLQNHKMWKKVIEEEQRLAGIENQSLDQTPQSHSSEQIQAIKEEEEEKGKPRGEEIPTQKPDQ
T2 sequence (Q9Y233 267-1055): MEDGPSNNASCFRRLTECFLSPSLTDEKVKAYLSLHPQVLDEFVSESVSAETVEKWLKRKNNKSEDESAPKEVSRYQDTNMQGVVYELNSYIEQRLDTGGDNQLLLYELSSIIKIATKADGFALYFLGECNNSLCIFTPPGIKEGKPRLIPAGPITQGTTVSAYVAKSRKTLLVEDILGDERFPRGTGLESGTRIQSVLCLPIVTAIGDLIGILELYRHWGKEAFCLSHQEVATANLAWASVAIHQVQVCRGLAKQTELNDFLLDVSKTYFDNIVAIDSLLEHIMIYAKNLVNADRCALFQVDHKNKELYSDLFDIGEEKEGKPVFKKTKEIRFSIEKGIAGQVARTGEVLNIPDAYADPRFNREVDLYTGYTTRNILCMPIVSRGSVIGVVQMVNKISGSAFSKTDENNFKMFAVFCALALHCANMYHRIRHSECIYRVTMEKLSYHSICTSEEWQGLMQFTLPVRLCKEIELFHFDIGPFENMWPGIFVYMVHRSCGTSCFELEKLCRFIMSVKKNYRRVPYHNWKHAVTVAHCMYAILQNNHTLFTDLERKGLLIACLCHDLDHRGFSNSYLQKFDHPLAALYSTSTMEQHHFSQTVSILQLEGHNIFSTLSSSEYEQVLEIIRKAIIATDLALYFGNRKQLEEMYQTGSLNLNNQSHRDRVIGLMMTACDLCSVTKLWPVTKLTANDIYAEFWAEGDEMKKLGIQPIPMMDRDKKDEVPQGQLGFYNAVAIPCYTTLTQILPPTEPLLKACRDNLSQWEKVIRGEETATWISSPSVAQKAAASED

For `COc1cc(C(=O)N2CC[C@@H](C)[C@H](c3cc(C(F)F)nc4ncnn34)C2)cc(C)n1` [Compound 110], the “Basal synaptic transmission, change versus vehicle-treated control during baseline pre-tetanus” value in data set [1] (20 mg/kg subcutaneous) was “+8%”; in data set [1] (40 mg/kg subcutaneous), 9%. Besides, the “Enduring (>2 h) synaptic potentiation after HFS (fEPSP slope, % of pre-tetanus baseline)” value in data set [1] (20 mg/kg subcutaneous) was 137±8%; in data set [1] (40 mg/kg subcutaneous) it was 142±5%. The “fEPSP slope at 0-30 min after completion of the tetanization” value in data set [1] (20 mg/kg subcutaneous, p<0.05) was 153±5%; in data set [1] (40 mg/kg subcutaneous, p<0.05), 155±4%. Moreover, the “fEPSP at 90-120 min after tetanization” value in data set [1] (40 mg/kg subcutaneous, vehicle level 106±13%, p<0.05) came out at 129±5%. Also, the “fEPSP at 60-90 min after tetanization” value in data set [1] (40 mg/kg subcutaneous, vehicle level 116±9, p<0.05) is recorded as 137±5%. Moreover, the “fEPSP at 30-60 min after tetanization” value in data set [1] (40 mg/kg subcutaneous, vehicle level 125±6, p<0.05) was found to be 146±6%. Besides, the “Overall effect on basal synaptic transmission and LTP in vivo” value in data set [1] (20 and 40 mg/kg subcutaneous, anesthetized rats) is “facilitates basal synaptic transmission and LTP in vivo”. The “Slope of the SC-CA1 path fEPSPs across the I/O curves (excitability of CA1 cells)” value in data set [1] (20 and 40 mg/kg versus vehicle, FIG. 16b, c) is recorded as “No differences”. Moreover, the IC50 in data set [2] was 3390 nM; in data set [3] it was 72.4 nM and 112 nM; in data set [4] (setting [6]) it was 0.955 nM; in data set [4], 1.32 nM. Further, the Emax in data set [2] is 76%; in data set [3], 98%; in data set [4] (human recombinant PDE2A) it was 101%; in data set [4], 100%. The compound further returned a receptor occupancy at 10 mg/kg on PDE2A (po, 10 mg/kg, percentage receptor occupancy, ex-vivo autoradiography, striatum) of 75%. The ED50 on PDE2A (drug dose producing 50% receptor occupancy, read-out: PDE Occupancy ED50) was 8.3 mg/kg.

`CC1(c2ccnc3ncnn23)CCCN(C(=O)c2ccc3occc3c2)C1` (stereo not drawn) [Compound 202] registered a melting point of 78.65 °C. In data set [2], the IC50 is above 10000 nM and the Emax came to 18%. Besides, in data set [3], the Emax was determined as 38% and the IC50 was above 10000 nM. The Emax in data set [5] (rat clone (r)) is 4%. The IC50 in data set [5] (rat clone (r), read-out: rPDE10A2 pIC50 (converted)) is above 10000 nM. In addition, in data set [5] (rat clone, indicated as (r)), the “rPDE10A2 pIC50” value is on record as <5 (r). For the same compound, the IC50 in data set [4] (setting [6]) was 2690 nM. Further, the Emax in data set [4] (human recombinant PDE2A) came to 30%. In addition, in data set [4], the Emax was 30% and the IC50 is 2690 nM.
